Experiments:
[1] = Pre-clinical prediction of human in vivo plasma clearance from hepatocytes; assay type: in vitro ADME
Method: (§1) Briefly, in vivo plasma clearance (CL) in humans was predicted to be ˜3 and ˜0.6 mL/min/kg from human liver microsomes and hepatocytes, respectively. The conservative value of ˜3 mL/min/kg from human liver microsomes was used as the predicted CL. […] A half-life (t1/2) is predicted to be ˜6 h calculated by the equation: t1/2=0.693*Vss/CL.

PRMT5 = biological target: T1, PRMT5 (Homo sapiens, UniProt O14744); assay: Blood pharmacodynamic biomarker plasma SDMA inhibition (LC-MS/MS) in patients; assay type: in vivo
T1 construct: endogenous in cells; host or cells: tissues of the dosed subjects (in vivo); SDMA measured in plasma by LC-MS/MS
T1 sequence (O14744 whole entry): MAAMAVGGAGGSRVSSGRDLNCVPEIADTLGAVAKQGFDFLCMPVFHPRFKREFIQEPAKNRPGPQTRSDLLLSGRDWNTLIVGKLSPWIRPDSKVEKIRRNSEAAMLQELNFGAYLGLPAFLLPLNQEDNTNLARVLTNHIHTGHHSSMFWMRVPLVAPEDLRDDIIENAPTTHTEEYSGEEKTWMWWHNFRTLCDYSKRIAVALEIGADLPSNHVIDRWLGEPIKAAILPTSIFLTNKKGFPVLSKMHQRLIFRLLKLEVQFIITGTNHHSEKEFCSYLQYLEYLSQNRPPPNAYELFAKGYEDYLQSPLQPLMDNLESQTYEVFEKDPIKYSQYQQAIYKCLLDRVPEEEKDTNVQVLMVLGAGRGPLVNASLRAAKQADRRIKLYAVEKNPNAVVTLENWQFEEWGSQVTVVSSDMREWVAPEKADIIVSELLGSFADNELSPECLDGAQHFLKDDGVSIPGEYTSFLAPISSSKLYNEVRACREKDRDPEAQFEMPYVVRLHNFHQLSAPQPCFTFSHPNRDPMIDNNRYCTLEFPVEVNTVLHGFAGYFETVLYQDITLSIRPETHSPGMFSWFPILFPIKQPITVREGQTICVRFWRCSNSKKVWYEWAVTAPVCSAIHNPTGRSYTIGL
T1 sequence (Q9BQA1 whole entry partner): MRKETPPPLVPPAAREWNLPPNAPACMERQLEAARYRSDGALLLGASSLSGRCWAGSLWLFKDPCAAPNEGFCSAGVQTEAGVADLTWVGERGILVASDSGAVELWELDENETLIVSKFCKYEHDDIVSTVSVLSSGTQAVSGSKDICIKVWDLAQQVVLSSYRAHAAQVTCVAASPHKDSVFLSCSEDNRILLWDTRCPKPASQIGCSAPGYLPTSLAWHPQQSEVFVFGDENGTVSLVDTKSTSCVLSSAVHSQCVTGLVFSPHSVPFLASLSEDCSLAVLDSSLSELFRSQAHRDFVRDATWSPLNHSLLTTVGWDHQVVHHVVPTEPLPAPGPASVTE
Method: The plasma SDMA (Symmetrical Dimethylarginine) level was used as a pharmacodynamic biomarker (PD) to monitor the inhibition effect of Compound 1. SDMA was chosen for the blood PD biomarker because PRMT5 catalyzes the formation of SDMA in a number of nuclear and cytoplasmic proteins, and PRMT5 inhibition would result in a decrease of SDMA. The quantitative determination of SDMA was performed by using a liquid chromatography mass spectrometry (LC-MS/MS) assay which is an exceedingly sensitive and specific analytical technique that can precisely determine the identities and concentration of compounds such as SDMA within a sample. The assay had been validated from 1-500 ng/ml in plasma. […] The plasma SDMA inhibition were around 60% for the first two cohorts (N=1 in each cohort), including 0.5 mg QD and 0.5 mg BID. The plasma SDMA inhibition was around 80% from cohort 3 to cohort 9, including 1 mg BID (N=2), 2 mg BID (N=3), 4 mg BID (N=3), 6 mg BID (N=4), 4 mg QD (N=5), 6 mg QD (N=6), and 8 mg QD (N=3).

[2] = Tolerability of BID dosing scheme in Phase 1 clinical trial; assay type: in vivo, human; conditions: BID (twice daily) dosing scheme, patients
From the text: These calculations, and in particular the half-life projection, were incorporated into the design of a Phase I clinical trial of Compound 1 [Study NCT03854227; A Phase 1 Study to Evaluate the Safety, Pharmacokinetics, and Pharmacodynamics of Escalating Doses Of [Compound 1] (PRMT Inhibitor) in Participants with Advanced or Metastatic Non-Small Cell Lung Cancer, Head And Neck Squamous Cell Carcinoma, Esophageal Cancer, Endometrial Cancer, Cervical Cancer And Bladder Cancer; first posted 26 Feb. 2019] which included BID (twice daily) dosing of 0.5 mg, 1 mg, 2 mg, 4 mg, 8 mg, 16 mg, 30 mg and 60 mg Compound 1. BID (twice daily) dosing was implemented for all doses thought to potentially be therapeutic in order to limit (i.e., lessen) the projected peak to trough ratio of Compound 1 in view of the predicted ˜6-hour half-life of Compound 1.
In this regard, it is noted that the primary indications for Compound 1 are various cancer types which are often accompanied by patients' physical and emotional difficulties in executing self-care. Moreover, many cancer indications become more prevalent with advancing age and is often accompanied by decline in memory. […]
Part 1A (dose escalation) has approximately 9 cohorts and enrolls approximately 40 participants. […] Dose limiting toxicities (DLT) were assessed at the end of Cycle 1 (28 days) to inform dose escalation and determine the MTD. […]

[3] = Pre-clinical projection of human Vss, half-life and peak to trough ratio (unbound Vss scaling from rats and dogs; t1/2=0.693*Vss/CL); conditions: for predicted peak to trough ratio in humans: based on ~6-hour projected half-life
Method: as §1
Moreover, based on the ˜6-hour projected half-life for Compound 1 the likely peak to trough ratio in humans was predicted to be lower following twice daily (BID) dosing (˜4) compared to once daily (QD) dosing (˜8 or more). Lower peak to trough ratios are generally more desirable because they may help to minimize potential Cmax-related adverse effects (if any) while maintaining the therapeutic effects.
Half-life, for instance the half-life of Compound 1, refers to the time it takes for the plasma concentration of Compound 1 to decrease by 50% as calculated by the equation: 0.693*Vss/CL where Vss is the steady-state volume of distribution and CL is plasma clearance.

[4] = Pre-clinical prediction of human in vivo plasma clearance from human liver microsomes; assay type: in vitro ADME; conditions: used as the predicted CL
Method: as §1

[5] = Phase 1 clinical PK of Compound 1 in patients (plasma, LC-MS/MS), Study NCT03854227; assay type: in vivo, human
Method: Peak to trough ratio refers to the ratio of the maximum concentration (Cmax) to minimum concentration (Cmin) of Compound 1 observed. Relevant to the present invention is the peak to trough ration during the dosing interval at “steady state” (day 15). Blood samples for the characterization of PK profiles were collected at pre- and post-dose on Day 1 (single dose) and Day 15 (steady state), and were analyzed for Compound 1 using a validated liquid chromatography coupled with tandem mass spectrometry (LC-MS/MS) assay. The lower limit of quantitation of the assay was 0.250 ng/mL. The representative day 1 median PK profile of Compound 1 dosed at 2 mg BID is provided at FIG. 1. The representative steady state (day 15) median PK profile of Compound 1 dosed at 2 mg BID is provided at FIG. 2. Table 1 (below) depicts representative mean maximum (Cmax) and minimum (Cmin) daily concentrations of Compound 1 at “steady state” (day 15) dosed BID at 2 mg. A population pharmacokinetic (PK) model was generated based on the preliminary PK data from 6 patients received Compound 1 orally at doses up to 2 mg BID at steady state. It was observed that actual mean peak to trough ratio at steady state (here, 15 days of dosing) of Compound 1 in the NCT03854227 clinical trial was ˜2 for BID dosing, substantially lower than that previously predicted based on pre-clinical data (˜4 for BID). Furthermore, based on this population PK model, the steady state PK profiles following QD vs BID dosing (using a 16 mg total daily dose as an example) were compared using the individual PK parameters from each of these 6 patients. […] Compound 1 was provided to patients in three cohorts as tablets ((1) 1 mg tablets (for patient dosed with 4 mg QD); and 2) 1 mg and 5 mg tablets (for patients dosed with 6 mg QD and 8 mg QD)) supplied in separate labeled bottles for oral administration. Because patients were receiving 4 mg QD, 6 mg QD, and 8 mg QD, respectively, each of them were instructed to swallow whole (i.e., without crushing or chewing) 1) four 1 mg tablets (for the 4 mg QD cohort (N=3)); 2) one 5 mg tablets and one 1 mg tablet (for the 6 mg cohort (N=6)); and 3) one 5 mg tablet and three 1 mg tablets (for the 8 mg cohort (N=2)) at the same time each morning with at least 8 oz (240 mL) of water on an empty stomach. No food or liquids other than water were consumed for 2 hours before and 1 hour following each dose administration. Patients in these cohorts took Compound 1 orally QD as described above for four cycles (a cycle is 28 days). Weekly visits to the clinic were made by the patient to evaluate the anti-cancer activity and side effects of Compound 1. FIG. 5, FIG. 6, and FIG. 7 show the Day 15 steady state median concentration-time profiles for 4 mg QD, 6 mg QD, and 8 mg QD, respectively. […]

Cc1ncnc2c1ccn2[C@@H]1C[C@H](Oc2cc(C(F)F)c(F)c3c2CNCC3)[C@@H](O)[C@H]1O [Compound 1, (1S,2S,3S,5R)-3-((6-(difluoromethyl)-5-fluoro-1,2,3,4-tetrahydroisoquinolin-8-yl)oxy)-5-(4-methyl-7H-pyrrolo[2,3-d]pyrimidin-7-yl)cyclopentane-1,2-diol]
predicted in vivo plasma clearance (CL) in humans [1]: ~0.036 L/h/kg
plasma SDMA inhibition (PRMT5; cohort 3 to cohort 9: 1, 2, 4, 6 mg BID and 4, 6, 8 mg QD): around 80%
inhibition at 0.5 mg (PRMT5; human, first two cohorts: 0.5 mg QD and 0.5 mg BID (N=1 in each)): ~60%
SDMA reduction over time (PRMT5; plasma, different dose levels, patients (FIG. 8)): 60-80%
tolerability [2]: well tolerated
predicted half-life (t1/2) in humans ([3]; calculated t1/2=0.693*Vss/CL): ~6 h
predicted steady-state volume of distribution (Vss) in humans ([3]; mean unbound Vss scaling from rats and dogs, factoring in human plasma protein binding): 1.6 L/kg
predicted peak to trough ratio in humans ([3]; once daily (QD) dosing): ≥ 8
predicted peak to trough ratio in humans ([3]; twice daily (BID) dosing): ~4
predicted in vivo plasma clearance (CL) in humans [4]: ~0.18 L/h/kg
actual mean peak to trough ratio at steady state ([5]; BID dosing, doses up to 2 mg BID, 15 days of dosing, patients): ~2
peak-to-trough ratio at steady state (median) ([5]; QD oral dosing (4 mg, 6 mg, 8 mg QD cohorts), Day 15, patients): 3.1
Cmax at 15 day ([5]; human, plasma, 2 mg BID oral, steady state (day 15), patients, N=2, read-out: Cmax (mean maximum daily concentration)): 0.0269 µg/mL
concentration at 15 day ([5]; human, plasma, 2 mg BID oral, steady state (day 15), patients, N=2, read-out: Cmin (mean minimum daily concentration)): 0.0146 µg/mL

Reference: US20230043985A1, “ONCE DAILY CANCER TREATMENT REGIMEN WITH A PRMT5 INHIBITOR” (Pfizer Inc., priority 2019, published 2023)
